# Tests used:
# Bcl-2 protein = Bcl-2 protein (histag-Bcl-2, UniProtKB P10415) (Homo sapiens (Human), UniProt P10415); test: Inhibition of Bcl-2 by the fluorescence polarisation technique; format: binding; conditions: fluorescence polarisation test; incubation for 2 hours; read-out: IC50 (nM) Bcl-2 FP
# Text: For partial inhibitors, the percentage fluorescence polarisation inhibition for a given concentration of the test compound is indicated.
# [1] = test system: RS4; 11 leukaemia cell line; test: In vitro cytotoxicity, Microculture Tetrazolium Assay (MTT); format: cell-based; conditions: Homo sapiens, 11 cells exposed for 48 hours
# Protocol: The cytotoxicity studies were carried out on the RS4; 11 leukaemia cell line and on H146 small Cell Lung Carcinoma cell line. The cells are distributed onto microplates and exposed to the test compounds for 48 hours. The cell viability is then quantified by a colorimetric assay, the Microculture Tetrazolium Assay (Cancer Res., 1987, 47, 939-942).
# Bcl-2 protein, sequence (P10415 whole entry): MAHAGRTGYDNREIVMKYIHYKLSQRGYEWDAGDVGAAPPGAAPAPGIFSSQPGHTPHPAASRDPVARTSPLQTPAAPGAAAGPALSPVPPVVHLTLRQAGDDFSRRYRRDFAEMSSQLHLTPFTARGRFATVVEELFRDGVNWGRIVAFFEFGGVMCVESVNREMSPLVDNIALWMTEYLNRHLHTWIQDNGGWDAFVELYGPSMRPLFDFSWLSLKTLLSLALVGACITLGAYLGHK
IC50 (Bcl-2 protein) [nM],Compound,IC50 [1] [nM]
51,"Cc1c(C(=O)N(C)c2ccc(O)cc2)cc(-c2cc3c(cc2C(=O)N2Cc4ccccc4C[C@H]2CN(C)C)CN(C(=O)C(F)(F)F)CC3)n1C [Example 782, 5-{7-[(3S)-3-[(Dimethylamino)methyl]-1,2,3,4-tetrahydroisoquinoline-2-carbonyl]-2-(trifluoroacetyl)-1,2,3,4-tetrahydroisoquinolin-6-yl}-N-(4-hydroxyphenyl)-N,1,2-trimethyl-1H-pyrrole-3-carboxamide]",112
4.4,"Cc1c(C(=O)N(C)c2ccc(O)cc2)cc(-c2cc3c(cc2C(=O)N2Cc4ccccc4C[C@H]2C)CN(C(=O)Oc2ccccc2)C3)n1C [Example 63, Phenyl 5-{4-[(4-hydroxyphenyl)(methyl)carbamoyl]-1,5-dimethyl-1H-pyrrol-2-yl}-6-[(3R)-3-methyl-1,2,3,4-tetrahydroisoquinoline-2-carbonyl]-2,3-dihydro-1H-isoindole-2-carboxylate]",12
2.6,"CCCN(C(=O)c1cc(-c2cc3c(cc2C(=O)N2Cc4ccccc4C[C@H]2CN2CCOCC2)CN(C(=O)Cc2ccccc2)CC3)n(C)c1C)c1ccc(O)cc1 [Example 781, N-(4-Hydroxyphenyl)-1,2-dimethyl-5-{7-[(3S)-3-(morpholin-4-ylmethyl)-1,2,3,4-tetrahydroisoquinoline-2-carbonyl]-2-(2-phenylacetyl)-1,2,3,4-tetrahydroisoquinolin-6-yl}-N-propyl-1H-pyrrole-3-carboxamide]",9.7
11,"Cc1c(C(=O)N(C)c2ccccc2)cc(-c2cc3c(cc2C(=O)N2Cc4ccccc4C[C@H]2C)CN(C(=O)Cc2ccc(NCCN(C)C)cc2)CC3)n1C [Example 149, 5-{2-[2-(4-{[2-(Dimethylamino)ethyl]amino}phenyl)acetyl]-7-[(3R)-3-methyl-1,2,3,4-tetrahydroisoquinoline-2-carbonyl]-1,2,3,4-tetrahydroisoquinolin-6-yl}-N,1,2-trimethyl-N-phenyl-1H-pyrrole-3-carboxamide]",124
68,"CCCCN(CCCC)C(=O)c1cc(-c2cc3c(cc2C(=O)N2CCc4ccccc4C2)CN(C(=O)Oc2ccccc2)CC3)n(C)c1C [Example 161, Phenyl 6-[4-(dibutylcarbamoyl)-1,5-dimethyl-1H-pyrrol-2-yl]-7-(1,2,3,4-tetrahydroisoquinoline-2-carbonyl)-1,2,3,4-tetrahydroisoquinoline-2-carboxylate]",> 150
3.8,"Cc1c(C(=O)N(C)c2ccccc2)cc(-c2cc3c(cc2C(=O)N2Cc4ccccc4C[C@H]2CCCN2CCOCC2)CN(C(=O)OC2CCCCC2)CC3)n1C [Example 811, Cyclohexyl 6-{1,5-dimethyl-4-[methyl(phenyl)carbamoyl]-1H-pyrrol-2-yl}-7-[(3R)-3-[3-(morpholin-4-yl)propyl]-1,2,3,4-tetrahydroisoquinoline-2-carbonyl]-1,2,3,4-tetrahydroisoquinoline-2-carboxylate]",94

# The next lines start with the molecule.
Compound,IC50 (Bcl-2 protein) [nM],IC50 [1] [nM]
"C[C@@H]1Cc2ccccc2CN1C(=O)c1cc2c(cc1-c1cc(C(=O)N(C)c3ccc(O)cc3)c3n1CCCC3)CN(C(=O)COc1ccccc1Cl)C2 [Example 86, 3-{2-[2-(2-Chlorophenoxy)acetyl]-6-[(3R)-3-methyl-1,2,3,4-tetrahydroisoquinoline-2-carbonyl]-2,3-dihydro-1H-isoindol-5-yl}-N-(4-hydroxyphenyl)-N-methyl-5,6,7,8-tetrahydroindolizine-1-carboxamide]",5.5,60
"Cc1c(C(=O)N(C)c2ccc(O)cc2)cc(-c2cc3c(cc2C(=O)N2Cc4ccccc4C[C@H]2C)CN(C(=O)[C@H](O)c2ccccc2)C3)n1C [Example 175, N-(4-Hydroxyphenyl)-5-(2-[(2R)-2-hydroxy-2-phenylacetyl]-6-{[(3R)-3-methyl-3,4-dihydroisoquinolin-2(1H)-yl]carbonyl}-2,3-dihydro-1H-isoindol-5-yl)-N,1,2-trimethyl-1H-pyrrole-3-carboxamide]",4.2,90
"Cc1c(C(=O)N(C)c2ccccc2)cc(-c2cc3c(cc2C(=O)N2Cc4ccccc4C[C@H]2C)CN(C(=O)Oc2ccc(NCCN(C)C)cc2)CC3)n1C [Example 489, 4-{[2-(Dimethylamino)ethyl]amino}phenyl 6-{1,5-dimethyl-4-[methyl(phenyl)carbamoyl]-1H-pyrrol-2-yl}-7-[(3R)-3-methyl-1,2,3,4-tetrahydroisoquinoline-2-carbonyl]-1,2,3,4-tetrahydroisoquinoline-2-carboxylate]",3.2,68
"C[C@@H]1Cc2ccccc2CN1C(=O)c1cc2c(cc1-c1cc(C(=O)N(C)c3ccc(O)cc3)c3n1CCCC3)CN(C(=O)OCc1cnc3[nH]ccc3c1)C2 [Example 64, 1H-pyrrolo[2,3-b]pyridin-5-ylmethyl 5-{1-[(4-hydroxyphenyl)(methyl)carbamoyl]-5,6,7,8-tetrahydroindolizin-3-yl}-6-[(3R)-3-methyl-1,2,3,4-tetrahydroisoquinoline-2-carbonyl]-2,3-dihydro-1H-isoindole-2-carboxylate]",27,204
"Cc1c(C(=O)N(C)c2ccccc2)cc(-c2cc3c(cc2C(=O)N2Cc4ccccc4C[C@H]2C)CN(C(=O)Oc2cccc(N(C)CCN(C)C)c2)CC3)n1C [Example 446, 3-{[2-(Dimethylamino)ethyl](methyl)amino}phenyl 6-{1,5-dimethyl-4-[methyl(phenyl)carbamoyl]-1H-pyrrol-2-yl}-7-[(3R)-3-methyl-1,2,3,4-tetrahydroisoquinoline-2-carbonyl]-1,2,3,4-tetrahydroisoquinoline-2-carboxylate]",4.3,14
"Cc1c(C(=O)N(C)c2ccc(O)cc2)cc(-c2cc3c(cc2C(=O)N2Cc4ccccc4C[C@H]2CCCN2CCOCC2)CN(C(=O)Oc2ccccc2)CC3)n1C [Example 808, Phenyl 6-{4-[(4-hydroxyphenyl)(methyl)carbamoyl]-1,5-dimethyl-1H-pyrrol-2-yl}-7-[(3R)-3-[3-(morpholin-4-yl)propyl]-1,2,3,4-tetrahydroisoquinoline-2-carbonyl]-1,2,3,4-tetrahydroisoquinoline-2-carboxylate]",2.7,1.6
"Cc1c(C(=O)N(C)c2ccc(O)cc2)cc(-c2cc3c(cc2C(=O)N2Cc4ccccc4C[C@H]2C)CN(C(=O)Oc2ccc(N(C)CCN(C)C)cc2)CC3)n1C [Example 474, 4-{[2-(Dimethylamino)ethyl](methyl)amino}phenyl 6-{4-[(4-hydroxyphenyl)(methyl)carbamoyl]-1,5-dimethyl-1H-pyrrol-2-yl}-7-[(3R)-3-methyl-1,2,3,4-tetrahydroisoquinoline-2-carbonyl]-1,2,3,4-tetrahydroisoquinoline-2-carboxylate]",4.5,2.6
"CCCCN(CCCC)C(=O)c1cc(-c2cc3c(cc2C(=O)N2Cc4ccccc4C[C@H]2CN2CCOCC2)CN(C(=O)Oc2ccccc2)CC3)n(C)c1C [Example 197, Phenyl 6-[4-(dibutylcarbamoyl)-1,5-dimethyl-1H-pyrrol-2-yl]-7-[(3S)-3-(morpholin-4-ylmethyl)-1,2,3,4-tetrahydroisoquinoline-2-carbonyl]-1,2,3,4-tetrahydroisoquinoline-2-carboxylate]",26,> 150
"C[C@@H]1Cc2ccccc2CN1C(=O)c1cc2c(cc1-c1cc(C(=O)N(C)c3ccc(O)cc3)c3n1CCCC3)CN(C(=O)COc1ccc(Cl)cc1)C2 [Example 49, 3-{2-[2-(4-Chlorophenoxy)acetyl]-6-[(3R)-3-methyl-1,2,3,4-tetrahydroisoquinoline-2-carbonyl]-2,3-dihydro-1H-isoindol-5-yl}-N-(4-hydroxyphenyl)-N-methyl-5,6,7,8-tetrahydroindolizine-1-carboxamide]",23,58
"COc1cc(C#N)ccc1OC(=O)N1CCc2cc(-c3cc(C(=O)N(C)c4ccc(O)cc4)c4n3CCCC4)c(C(=O)N3Cc4ccccc4C[C@H]3CN3CCOCC3)cc2C1 [Example 148, 4-Cyano-2-methoxyphenyl 6-{1-[(4-hydroxyphenyl)(methyl)carbamoyl]-5,6,7,8-tetrahydroindolizin-3-yl}-7-[(3S)-3-(morpholin-4-ylmethyl)-1,2,3,4-tetrahydroisoquinoline-2-carbonyl]-1,2,3,4-tetrahydroisoquinoline-2-carboxylate]",3,10
"C[C@@H]1Cc2ccccc2CN1C(=O)c1cc2c(cc1-c1cc(C(=O)N(c3ccccc3)c3ccc(O)cc3)c3n1CCCC3)CN(C(=O)Oc1ccccc1)C2 [Example 133, Phenyl 5-{1-[(4-hydroxyphenyl)(phenyl)carbamoyl]-5,6,7,8-tetrahydroindolizin-3-yl}-6-[(3R)-3-methyl-1,2,3,4-tetrahydroisoquinoline-2-carbonyl]-2,3-dihydro-1H-isoindole-2-carboxylate]",7,8.2
"CN(C(=O)c1cc(-c2cc3c(cc2C(=O)N2Cc4ccccc4C[C@H]2CN2CCOCC2)CN(C(=O)OC(C)(C)C)CC3)n2c1CCCC2)c1ccc(O)cc1 [Example 1, tert-Butyl 6-{1-[(4-hydroxyphenyl)(methyl)carbamoyl]-5,6,7,8-tetrahydroindolizin-3-yl}-7-[(3S)-3-(morpholin-4-ylmethyl)-1,2,3,4-tetrahydroisoquinoline-2-carbonyl]-1,2,3,4-tetrahydroisoquinoline-2-carboxylate]",13,140
"CCCCN(C(=O)c1cc(-c2cc3c(cc2C(=O)N2Cc4ccccc4C[C@H]2CN2CCOCC2)CN(C(=O)Oc2ccccc2)CC3)n(C)c1C)c1ccc(O)cc1 [Example 187, Phenyl 6-{4-[butyl(4-hydroxyphenyl)carbamoyl]-1,5-dimethyl-1H-pyrrol-2-yl}-7-[(3S)-3-(morpholin-4-ylmethyl)-1,2,3,4-tetrahydroisoquinoline-2-carbonyl]-1,2,3,4-tetrahydroisoquinoline-2-carboxylate]",3,4.6
